One data set relates to Nilaparvata lugens. As to the kind of experiment: Insecticidal activity against Nilaparvata lugens (planthopper) by spraying. Type of data set: in vivo. Conditions: for mortality (%) (500 ppm) Nilaparvata lugens: spraying 2 ml, counted after 24 hours; for mortality at 500 ppm: Nilaparvata lugens, 24 h, read-out: mortality (%) (500 ppm) Nilaparvata lugens. The method, then: (§1) Test on the insecticidal activity of Compound Nos. 1-227
Planthopper, which belongs to Homoptera and has a piercing-sucking mouthpart, is a common insect for agricultural plant. Nilaparvata lugens was tested by the way of spraying.
Test method: the test compound was exactly formulated into a solution having a certain concentration and clean water was used as a blank control. Each process was repeated for 3 tumblers (3 times). 2 ml of solution was sprayed uniformly to each tumbler by a mini manual sprayer. 10 Nilaparvata lugens were introduced to every sink 6 hours before spraying. Three series of experiments were conducted. The number of killed Nilaparvata lugens was counted after 24 hours to calculate the mortality.

The test system of the next data set is Aphis craccivoral. As to the kind of experiment: Insecticidal activity against Aphis craccivoral by immersing (dipping aphids on bean sprout). Type of data set: in vivo. Conditions: for mortality (%) (500 ppm) Aphis: immersing (dipped 5 seconds), counted after 24 hours, 23° C.; for mortality at 500 ppm: Aphis, 24 h, read-out: mortality (%) (500 ppm) Aphis. The method, then:
as §1
Aphis, which belongs to Homoptera and has a piercing-sucking mouthpart, is a common insect for agricultural plant. Aphis craccivoral was tested by the way of immersing.
Test method: exactly weighed various samples were independently added to N,N-dimethylformamide to form a 10 g/L stock solution. The mixture was diluted with 0.2 mL/L aqueous Triton X-100 solution to a concentration of 500 ug/mL. After stably sucking on bean sprout, the adult aphis without wings together with bean sprout was dipped into 500 ug/mL dilution, taken out after 5 seconds, and the excess dilution was sucked out with bibulous paper and the adult aphis without wings was incubated in clean vessel at a constant temperature of 23° C. Each concentration was repeated for 3 times and the control group contained 0.2 mL/L aqueous Triton X-100 solution. The number of killed aphis was counted after 24 hours to calculate the mortality.

The values below come from patent US7655665B2, “Nitromethylene derivatives and their use” (East China University of Science and Technology, priority 2004, dated 2010).

On to `CCC(C)OC1CCC([N+](=O)[O-])=C2N(Cc3cnc(Cl)s3)CCN21` (mixture of isomers) [Compound 33], for which the “mortality (%) (500 ppm) Nilaparvata lugens” value in the data set on Nilaparvata lugens stood at 56%. Moreover, the “mortality (%) (500 ppm) Aphis” value in the data set with Aphis craccivoral was determined as 24%.
On the same counts, the results for `CCCC(C)OC1CCC([N+](=O)[O-])=C2N(Cc3cnc(Cl)s3)CCN21` (mixture of isomers) [Compound 38] are 67% and 35%.
On the same counts, the results for `CC(C)(C)COC1CCC([N+](=O)[O-])=C2N(Cc3ccc(Cl)nc3)CCN21` (racemic) [Compound 17] are 100% and 100%.
On to `O=[N+]([O-])C1=C2N(Cc3ccc(Cl)nc3)CCN2C(OC2CCCCC2)CC1` (racemic) [Compound 18], for which, in the data set on Nilaparvata lugens, the “mortality (%) (500 ppm) Nilaparvata lugens” value was 67%. Also, in the data set with Aphis craccivoral, the “mortality (%) (500 ppm) Aphis” value is 23%.
On the same counts, the results for `C=CCOC1CCC([N+](=O)[O-])=C2N(Cc3ccc(Cl)nc3)CCN21` (racemic) [Compound 19] are 78% and 35%.
Regarding `C#CCOC1CCC([N+](=O)[O-])=C2N(Cc3ccc(Cl)nc3)CCN21` (racemic) [Compound 20], the “mortality (%) (500 ppm) Nilaparvata lugens” value in the data set with Nilaparvata lugens was 56%. Moreover, the “mortality (%) (500 ppm) Aphis” value in the data set on Aphis craccivoral came out at 39%.
As to `COCCOC1CCC([N+](=O)[O-])=C2N(Cc3ccc(Cl)nc3)CCN21` (racemic) [Compound 21], in the data set on Nilaparvata lugens, the “mortality (%) (500 ppm) Nilaparvata lugens” value is 100%. Besides, the “mortality (%) (500 ppm) Aphis” value in the data set on Aphis craccivoral was determined as 100%.
As for `CCOCCOC1CCC([N+](=O)[O-])=C2N(Cc3ccc(Cl)nc3)CCN21` (racemic) [Compound 22], in the data set with Nilaparvata lugens, the “mortality (%) (500 ppm) Nilaparvata lugens” value stood at 100%. In addition, the “mortality (%) (500 ppm) Aphis” value in the data set with Aphis craccivoral is 100%.
As to `O=[N+]([O-])C1=C2N(Cc3cnc(Cl)s3)CCN2C(O)CC1` (racemic) [Compound 23], the “mortality (%) (500 ppm) Nilaparvata lugens” value with Nilaparvata lugens amounted to 100%. Further, in the data set on Aphis craccivoral, the “mortality (%) (500 ppm) Aphis” value was found to be 87%.
The corresponding values for `COC1CCC([N+](=O)[O-])=C2N(Cc3cnc(Cl)s3)CCN21` (racemic) [Compound 24] are 100% and 100%.
On the same counts, the results for `CCOC1CCC([N+](=O)[O-])=C2N(Cc3cnc(Cl)s3)CCN21` (racemic) [Compound 25] are 100% and 100%.
Take `O=[N+]([O-])C1=C2N(Cc3cnc(Cl)s3)CCN2C(OCCCl)CC1` (racemic) [Compound 26]: the “mortality (%) (500 ppm) Nilaparvata lugens” value with Nilaparvata lugens was determined as 64%. Besides, in the data set with Aphis craccivoral, the “mortality (%) (500 ppm) Aphis” value was 26%.
On the same counts, the results for `O=[N+]([O-])C1=C2N(Cc3cnc(Cl)s3)CCN2C(OCC(F)(F)F)CC1` (racemic) [Compound 27] are 100% and 100%.
As to `CCCOC1CCC([N+](=O)[O-])=C2N(Cc3cnc(Cl)s3)CCN21` (racemic) [Compound 28], in the data set on Nilaparvata lugens, the “mortality (%) (500 ppm) Nilaparvata lugens” value amounted to 100%. The “mortality (%) (500 ppm) Aphis” value in the data set with Aphis craccivoral is 100%.
On to `CC(C)OC1CCC([N+](=O)[O-])=C2N(Cc3cnc(Cl)s3)CCN21` (racemic) [Compound 29], for which the “mortality (%) (500 ppm) Nilaparvata lugens” value with Nilaparvata lugens came out at 100%. Also, the “mortality (%) (500 ppm) Aphis” value in the data set on Aphis craccivoral is 100%.
For `O=[N+]([O-])C1=C2N(Cc3cnc(Cl)s3)CCN2C(OC(C(F)(F)F)C(F)(F)F)CC1` (racemic) [Compound 30], the “mortality (%) (500 ppm) Nilaparvata lugens” value in the data set on Nilaparvata lugens turned out to be 98%. In the data set on Aphis craccivoral, the “mortality (%) (500 ppm) Aphis” value came to 58%.
In the case of `CCCCOC1CCC([N+](=O)[O-])=C2N(Cc3cnc(Cl)s3)CCN21` (racemic) [Compound 31], the “mortality (%) (500 ppm) Nilaparvata lugens” value with Nilaparvata lugens is 35%. In addition, in the data set with Aphis craccivoral, the “mortality (%) (500 ppm) Aphis” value came to 56%.
Turning to `CC(C)COC1CCC([N+](=O)[O-])=C2N(Cc3cnc(Cl)s3)CCN21` (racemic) [Compound 32], the “mortality (%) (500 ppm) Nilaparvata lugens” value in the data set on Nilaparvata lugens is recorded as 23%. Further, the “mortality (%) (500 ppm) Aphis” value in the data set on Aphis craccivoral was 37%.
As for `CC(C)(C)OC1CCC([N+](=O)[O-])=C2N(Cc3cnc(Cl)s3)CCN21` (racemic) [Compound 34], the “mortality (%) (500 ppm) Nilaparvata lugens” value in the data set on Nilaparvata lugens worked out at 100%. The “mortality (%) (500 ppm) Aphis” value with Aphis craccivoral stood at 100%.
In the case of `CC(C)(OC1CCC([N+](=O)[O-])=C2N(Cc3cnc(Cl)s3)CCN21)C(Cl)(Cl)Cl` (racemic) [Compound 35], in the data set on Nilaparvata lugens, the “mortality (%) (500 ppm) Nilaparvata lugens” value is on record as 100%. Further, the “mortality (%) (500 ppm) Aphis” value in the data set on Aphis craccivoral is on record as 98%.
The corresponding values for `CCCCCOC1CCC([N+](=O)[O-])=C2N(Cc3cnc(Cl)s3)CCN21` (racemic) [Compound 36] are 57% and 34%.
Consider `CC(C)CCOC1CCC([N+](=O)[O-])=C2N(Cc3cnc(Cl)s3)CCN21` (racemic) [Compound 37], for which the “mortality (%) (500 ppm) Nilaparvata lugens” value with Nilaparvata lugens is reported as 64%. Further, in the data set on Aphis craccivoral, the “mortality (%) (500 ppm) Aphis” value was determined as 56%.
On the same counts, the results for `CC(C)(C)COC1CCC([N+](=O)[O-])=C2N(Cc3cnc(Cl)s3)CCN21` (racemic) [Compound 39] are 35% and 24%.
`O=[N+]([O-])C1=C2N(Cc3cnc(Cl)s3)CCN2C(OC2CCCCC2)CC1` (racemic) [Compound 40]: the “mortality (%) (500 ppm) Nilaparvata lugens” value in the data set with Nilaparvata lugens was 67%. Further, in the data set on Aphis craccivoral, the “mortality (%) (500 ppm) Aphis” value is listed as 45%.
The corresponding values for `C=CCOC1CCC([N+](=O)[O-])=C2N(Cc3cnc(Cl)s3)CCN21` (racemic) [Compound 41] are 100% and 89%.
On to `O=[N+]([O-])C1=C2N(Cc3ccc(Cl)nc3)CCN2C(O)CC1` (stereo not shown) [Compound 1], for which the mortality at 500 ppm in the data set on Nilaparvata lugens was found to be 100%; in the data set on Aphis craccivoral, 96%.
Regarding `COC1CCC([N+](=O)[O-])=C2N(Cc3ccc(Cl)nc3)CCN21` (stereo not shown) [Compound 2], the mortality at 500 ppm in the data set with Nilaparvata lugens and in the data set on Aphis craccivoral was 100% throughout.
Consider `CCOC1CCC([N+](=O)[O-])=C2N(Cc3ccc(Cl)nc3)CCN21` (stereo not shown) [Compound 3], for which the mortality at 500 ppm in the data set with Nilaparvata lugens and with Aphis craccivoral was 100% throughout.
On to `C#CCOC1CCC([N+](=O)[O-])=C2N(Cc3cnc(Cl)s3)CCN21` (stereo not shown) [Compound 42], for which the “mortality (%) (500 ppm) Nilaparvata lugens” value in the data set with Nilaparvata lugens was 100%. In the data set with Aphis craccivoral, the “mortality (%) (500 ppm) Aphis” value was determined as 45%.
In the case of `COCCOC1CCC([N+](=O)[O-])=C2N(Cc3cnc(Cl)s3)CCN21` (stereo not shown) [Compound 43], in the data set with Nilaparvata lugens, the “mortality (%) (500 ppm) Nilaparvata lugens” value is given as 100%. The “mortality (%) (500 ppm) Aphis” value in the data set with Aphis craccivoral stood at 100%.
As to `CCOCCOC1CCC([N+](=O)[O-])=C2N(Cc3cnc(Cl)s3)CCN21` (stereo not shown) [Compound 44], the “mortality (%) (500 ppm) Nilaparvata lugens” value with Nilaparvata lugens was 100%. The “mortality (%) (500 ppm) Aphis” value in the data set on Aphis craccivoral was 67%.
On the same counts, the results for `O=[N+]([O-])C1=C2N(CC3CCOC3)CCN2C(O)CC1` (stereo not shown) [Compound 45] are 89% and 56%.
On the same counts, the results for `COC1CCC([N+](=O)[O-])=C2N(CC3CCOC3)CCN21` (stereo not shown) [Compound 46] are 100% and 100%.
The corresponding values for `CCOC1CCC([N+](=O)[O-])=C2N(CC3CCOC3)CCN21` (stereo not shown) [Compound 47] are 100% and 45%.
On to `O=[N+]([O-])C1=C2N(CC3CCOC3)CCN2C(OCCCl)CC1` (stereo not shown) [Compound 48], for which, in the data set on Nilaparvata lugens, the “mortality (%) (500 ppm) Nilaparvata lugens” value is recorded as 0%. Further, the “mortality (%) (500 ppm) Aphis” value in the data set on Aphis craccivoral is on record as 3%.
Take `O=[N+]([O-])C1=C2N(CC3CCOC3)CCN2C(OCC(F)(F)F)CC1` (stereo not shown) [Compound 49]: the “mortality (%) (500 ppm) Nilaparvata lugens” value in the data set on Nilaparvata lugens worked out at 32%. Further, the “mortality (%) (500 ppm) Aphis” value with Aphis craccivoral came to 45%.
`CCCOC1CCC([N+](=O)[O-])=C2N(CC3CCOC3)CCN21` (stereo not shown) [Compound 50]: in the data set with Nilaparvata lugens, the “mortality (%) (500 ppm) Nilaparvata lugens” value is on record as 100%. The “mortality (%) (500 ppm) Aphis” value in the data set on Aphis craccivoral came out at 100%.
With `CC(C)OC1CCC([N+](=O)[O-])=C2N(CC3CCOC3)CCN21` (stereo not shown) [Compound 51], the “mortality (%) (500 ppm) Nilaparvata lugens” value in the data set with Nilaparvata lugens amounted to 23%. For the same molecule, the “mortality (%) (500 ppm) Aphis” value in the data set with Aphis craccivoral was 34%.
As for `CCCCOC1CCC([N+](=O)[O-])=C2N(CC3CCOC3)CCN21` (stereo not shown) [Compound 53], the “mortality (%) (500 ppm) Nilaparvata lugens” value with Nilaparvata lugens is listed as 12%. In the data set with Aphis craccivoral, the “mortality (%) (500 ppm) Aphis” value came to 9%.
The corresponding values for `CC(C)COC1CCC([N+](=O)[O-])=C2N(CC3CCOC3)CCN21` (stereo not shown) [Compound 54] are 34% and 23%.
Turning to `CCC(C)OC1CCC([N+](=O)[O-])=C2N(CC3CCOC3)CCN21` (stereo not shown) [Compound 55], in the data set with Nilaparvata lugens, the “mortality (%) (500 ppm) Nilaparvata lugens” value is given as 12%. Further, the “mortality (%) (500 ppm) Aphis” value with Aphis craccivoral was found to be 45%.
On to `CC(C)(C)OC1CCC([N+](=O)[O-])=C2N(CC3CCOC3)CCN21` (stereo not shown) [Compound 56], for which, in the data set with Nilaparvata lugens, the “mortality (%) (500 ppm) Nilaparvata lugens” value turned out to be 100%. The “mortality (%) (500 ppm) Aphis” value in the data set on Aphis craccivoral amounted to 100%.
As to `CC(C)(OC1CCC([N+](=O)[O-])=C2N(CC3CCOC3)CCN21)C(Cl)(Cl)Cl` (stereo not shown) [Compound 57], in the data set with Nilaparvata lugens, the “mortality (%) (500 ppm) Nilaparvata lugens” value stood at 38%. Further, in the data set with Aphis craccivoral, the “mortality (%) (500 ppm) Aphis” value is listed as 34%.
In the case of `CCCCCOC1CCC([N+](=O)[O-])=C2N(CC3CCOC3)CCN21` (stereo not shown) [Compound 58], in the data set on Nilaparvata lugens, the “mortality (%) (500 ppm) Nilaparvata lugens” value amounted to 23%. The “mortality (%) (500 ppm) Aphis” value in the data set on Aphis craccivoral amounted to 34%.
